Results taken from patent US12599136B2, “Substituted isophthalic acid diamides and their use as herbicides” (Bayer Aktiengesellschaft, priority 2020, dated 2026).

What was measured:
Type in all cases: in vivo
Setaria viridis [1] = assay: Pre-emergence herbicidal action against SETVI
Procedure, shortened: (§1)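 Seeds sown in sandy loam, soil-covered; compound sprayed on soil surface pre-emergence. Application: WP/EC, 600–800 l/ha, 0.2% wetting agent. Readout: visual % damage at 3 weeks.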

Cyperus esculentus [2] = assay: Post-emergence herbicidal action against CYPES; conditions: 80 g/ha, visual assessment about 3 weeks after treatment
Procedure, shortened: (§2)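 Sandy loam, greenhouse; treatment 2–3 weeks after sowing, one-leaf stage. Aqueous suspension or emulsion from WP/EC sprayed on foliage (600–800 l/ha, 0.2% wetting agent). Readout: visual % action, ~3 weeks.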

Abutilon theophrasti [3] = assay: Pre-emergence herbicidal action against ABUTH; conditions: visual score after 3 weeks vs untreated controls
Procedure, shortened: as §1

Echinochloa crus-galli [4] = assay: Pre-emergence herbicidal action against ECHCG; conditions: visual score after 3 weeks vs untreated controls
Procedure, shortened: as §1

Alopecurus myosuroides [5] = assay: Pre-emergence herbicidal action against ALOMY; conditions: visual score after 3 weeks vs untreated controls
Procedure, shortened: as §1

Veronica persica [6] = assay: Pre-emergence herbicidal action against VERPE; conditions: 320 g/ha
Procedure, shortened: as §1

Viola tricolor [7] = assay: Post-emergence herbicidal action against VIOTR
Procedure, shortened: as §2

Abutilon theophrasti [8] = assay: Post-emergence herbicidal action against ABUTH
Procedure, shortened: as §2

Setaria viridis [9] = assay: Post-emergence herbicidal action against SETVI; conditions: visual assessment about 3 weeks after treatment
Procedure, shortened: as §2

Lolium rigidum [10] = assay: Pre-emergence herbicidal action against LOLRI; conditions: 320 g/ha
Procedure, shortened: as §1

Matricaria inodora [11] = assay: Post-emergence herbicidal action against MATIN; conditions: visual assessment about 3 weeks after treatment
Procedure, shortened: as §2

Amaranthus retroflexus [12] = assay: Post-emergence herbicidal action against AMARE; conditions: visual assessment about 3 weeks after treatment
Procedure, shortened: as §2

Avena fatua [13] = assay: Post-emergence herbicidal action against AVEFA; conditions: visual assessment about 3 weeks after treatment
Procedure, shortened: as §2

Hordeum murinum [14] = assay: Post-emergence herbicidal action against HORMU
Procedure, shortened: as §2

Cyperus esculentus [15] = assay: Pre-emergence herbicidal action against CYPES; conditions: 320 g/ha; visual score after 3 weeks vs untreated controls
Procedure, shortened: as §1

Veronica persica [16] = assay: Post-emergence herbicidal action against VERPE; conditions: visual assessment about 3 weeks after treatment
Procedure, shortened: as §2

Stellaria media [17] = assay: Pre-emergence herbicidal action against STEME
Procedure, shortened: as §1

Stellaria media [18] = assay: Post-emergence herbicidal action against STEME; conditions: visual assessment about 3 weeks after treatment
Procedure, shortened: as §2

Amaranthus retroflexus [19] = assay: Pre-emergence herbicidal action against AMARE; conditions: visual score after 3 weeks vs untreated controls
Procedure, shortened: as §1

Lolium rigidum [20] = assay: Post-emergence herbicidal action against LOLRI; conditions: 80 g/ha
Procedure, shortened: as §2

Echinochloa crus-galli [21] = assay: Post-emergence herbicidal action against ECHCG; conditions: visual assessment about 3 weeks after treatment
Procedure, shortened: as §2

Hordeum murinum [22] = assay: Pre-emergence herbicidal action against HORMU; conditions: visual score after 3 weeks vs untreated controls
Procedure, shortened: as §1

Matricaria inodora [23] = assay: Pre-emergence herbicidal action against MATIN; conditions: visual score after 3 weeks vs untreated controls
Procedure, shortened: as §1

Viola tricolor [24] = assay: Pre-emergence herbicidal action against VIOTR
Procedure, shortened: as §1

Alopecurus myosuroides [25] = assay: Post-emergence herbicidal action against ALOMY
Procedure, shortened: as §2

Polygonum convolvulus = assay: Post-emergence herbicidal action against POLCO; conditions: 80 g/ha, visual assessment about 3 weeks after treatment
Procedure, shortened: as §2

Pharbitis purpurea [26] = assay: Pre-emergence herbicidal action against PHBPU; conditions: 320 g/ha; visual score after 3 weeks vs untreated controls
Procedure, shortened: as §1

Avena fatua [27] = assay: Pre-emergence herbicidal action against AVEFA; conditions: visual score after 3 weeks vs untreated controls
Procedure, shortened: as §1

Pharbitis purpurea [28] = assay: Post-emergence herbicidal action against PHBPU; conditions: visual assessment about 3 weeks after treatment
Procedure, shortened: as §2

Question: CN(CC1CC1)C(=O)c1c(C(F)(F)F)ccc(C(=O)Nc2nnnn2C)c1Cl [Example 1-126] was tested. Which “Pre-emergence action against SETVI” value (Setaria viridis [1]; 80 g/ha) did it give?
Answer: 90%

Question: What about the “Pre-emergence action against SETVI” value (Setaria viridis [1]; 320 g/ha) of the same compound?
Answer: 100%

Question: What about the “Post-emergence action against CYPES in %” value (Cyperus esculentus [2]) of the same compound?
Answer: 80%

Question: What about the “Pre-emergence action against ABUTH” value (Abutilon theophrasti [3]; 20 g/ha) of the same compound?
Answer: 100%

Question: And the “Pre-emergence action against ABUTH” value (Abutilon theophrasti [3]; 80 g/ha)?
Answer: 100%

Question: And the “Pre-emergence action against ABUTH” value (Abutilon theophrasti [3]; Dosage column 320 g/ha (heading prints 3200 g/ha))?
Answer: 100%

Question: And the “Pre-emergence action against ECHCG” value (Echinochloa crus-galli [4]; 80 g/ha)?
Answer: 90%

Question: What about the “Pre-emergence action against ECHCG” value (Echinochloa crus-galli [4]; 320 g/ha) of the same compound?
Answer: 100%

Question: What about the “Pre-emergence action against ALOMY” value (Alopecurus myosuroides [5]; 80 g/ha) of the same compound?
Answer: 80%

Question: What about the “Pre-emergence action against ALOMY” value (Alopecurus myosuroides [5]; 320 g/ha) of the same compound?
Answer: 90%

Question: What about the “Pre-emergence action against VERPE” value (Veronica persica [6]) of the same compound?
Answer: 90%

Question: What about the “Post-emergence action against VIOTR in %” value (Viola tricolor [7]; 5 g/ha) of the same compound?
Answer: 90%

Question: What about the “Post-emergence action against VIOTR in %” value (Viola tricolor [7]; 20 g/ha) of the same compound?
Answer: 100%

Question: And the “Post-emergence action against VIOTR in %” value (Viola tricolor [7]; 80 g/ha)?
Answer: 100%

Question: What about the “Post-emergence action against ABUTH” value (Abutilon theophrasti [8]; 5 g/ha) of the same compound?
Answer: 100%

Question: What about the “Post-emergence action against ABUTH” value (Abutilon theophrasti [8]; 20 g/ha) of the same compound?
Answer: 100%

Question: And the “Post-emergence action against ABUTH” value (Abutilon theophrasti [8]; 80 g/ha)?
Answer: 100%

Question: What about the “Post-emergence action against SETVI in %” value (Setaria viridis [9]; 5 g/ha) of the same compound?
Answer: 100%

Question: And the “Post-emergence action against SETVI in %” value (Setaria viridis [9]; 20 g/ha)?
Answer: 100%

Question: What about the “Post-emergence action against SETVI in %” value (Setaria viridis [9]; 80 g/ha) of the same compound?
Answer: 100%

Question: And the “Pre-emergence action against LOLRI” value (Lolium rigidum [10])?
Answer: 90%

Question: What about the “Post-emergence action against MATIN in %” value (Matricaria inodora [11]; 5 g/ha) of the same compound?
Answer: 80%

Question: And the “Post-emergence action against MATIN in %” value (Matricaria inodora [11]; 20 g/ha)?
Answer: 90%

Question: What about the “Post-emergence action against MATIN in %” value (Matricaria inodora [11]; 80 g/ha) of the same compound?
Answer: 100%

Question: And the “Post-emergence action against AMARE in %” value (Amaranthus retroflexus [12]; 5 g/ha)?
Answer: 100%

Question: What about the “Post-emergence action against AMARE in %” value (Amaranthus retroflexus [12]; 20 g/ha) of the same compound?
Answer: 100%

Question: What about the “Post-emergence action against AMARE in %” value (Amaranthus retroflexus [12]; 80 g/ha) of the same compound?
Answer: 100%

Question: What about the “Post-emergence action against AVEFA in %” value (Avena fatua [13]; 20 g/ha) of the same compound?
Answer: 100%

Question: What about the “Post-emergence action against AVEFA in %” value (Avena fatua [13]; 80 g/ha) of the same compound?
Answer: 100%

Question: What about the “Post-emergence action against HORMU in %” value (Hordeum murinum [14]; 20 g/ha) of the same compound?
Answer: 100%

Question: What about the “Post-emergence action against HORMU in %” value (Hordeum murinum [14]; 80 g/ha) of the same compound?
Answer: 100%

Question: And the “Pre-emergence action against CYPES” value (Cyperus esculentus [15])?
Answer: 90%

Question: And the “Post-emergence action against VERPE in %” value (Veronica persica [16]; 20 g/ha)?
Answer: 80%

Question: And the “Post-emergence action against VERPE in %” value (Veronica persica [16]; 80 g/ha)?
Answer: 80%

Question: What about the “Pre-emergence action against STEME” value (Stellaria media [17]; 20 g/ha) of the same compound?
Answer: 80%

Question: What about the “Pre-emergence action against STEME” value (Stellaria media [17]; 320 g/ha) of the same compound?
Answer: 90%

Question: What about the “Post-emergence action against STEME in %” value (Stellaria media [18]; 5 g/ha) of the same compound?
Answer: 100%

Question: What about the “Post-emergence action against STEME in %” value (Stellaria media [18]; 20 g/ha) of the same compound?
Answer: 100%

Question: And the “Post-emergence action against STEME in %” value (Stellaria media [18]; 80 g/ha)?
Answer: 100%

Question: What about the “Pre-emergence action against AMARE” value (Amaranthus retroflexus [19]; 20 g/ha) of the same compound?
Answer: 80%

Question: What about the “Pre-emergence action against AMARE” value (Amaranthus retroflexus [19]; 80 g/ha) of the same compound?
Answer: 90%

Question: And the “Pre-emergence action against AMARE” value (Amaranthus retroflexus [19]; 320 g/ha)?
Answer: 100%

Question: And the “Post-emergence action against LOLRI in %” value (Lolium rigidum [20])?
Answer: 90%

Question: And the “Post-emergence action against ECHCG in %” value (Echinochloa crus-galli [21]; 5 g/ha)?
Answer: 80%

Question: And the “Post-emergence action against ECHCG in %” value (Echinochloa crus-galli [21]; 20 g/ha)?
Answer: 100%

Question: What about the “Post-emergence action against ECHCG in %” value (Echinochloa crus-galli [21]; 80 g/ha) of the same compound?
Answer: 100%

Question: And the “Pre-emergence action against HORMU” value (Hordeum murinum [22]; 80 g/ha)?
Answer: 80%

Question: What about the “Pre-emergence action against HORMU” value (Hordeum murinum [22]; 320 g/ha) of the same compound?
Answer: 100%

Question: And the “Pre-emergence action against MATIN” value (Matricaria inodora [23]; 20 g/ha)?
Answer: 80%

Question: What about the “Pre-emergence action against MATIN” value (Matricaria inodora [23]; 80 g/ha) of the same compound?
Answer: 100%

Question: And the “Pre-emergence action against MATIN” value (Matricaria inodora [23]; 320 g/ha)?
Answer: 100%

Question: What about the “Pre-emergence action against VIOTR” value (Viola tricolor [24]; 80 g/ha) of the same compound?
Answer: 100%

Question: What about the “Pre-emergence action against VIOTR” value (Viola tricolor [24]; 320 g/ha) of the same compound?
Answer: 100%

Question: What about the “Post-emergence action against ALOMY” value (Alopecurus myosuroides [25]; 5 g/ha) of the same compound?
Answer: 90%

Question: And the “Post-emergence action against ALOMY” value (Alopecurus myosuroides [25]; 20 g/ha)?
Answer: 100%

Question: What about the “Post-emergence action against ALOMY” value (Alopecurus myosuroides [25]; 80 g/ha) of the same compound?
Answer: 100%

Question: And the “Post-emergence action against POLCO in %” value (Polygonum convolvulus)?
Answer: 80%

Question: And the “Pre-emergence action against PHBPU” value (Pharbitis purpurea [26])?
Answer: 80%

Question: What about the “Pre-emergence action against AVEFA” value (Avena fatua [27]; 80 g/ha) of the same compound?
Answer: 80%

Question: And the “Pre-emergence action against AVEFA” value (Avena fatua [27]; 320 g/ha)?
Answer: 100%

Question: And the “Post-emergence action against PHBPU in %” value (Pharbitis purpurea [28]; 5 g/ha)?
Answer: 90%

Question: What about the “Post-emergence action against PHBPU in %” value (Pharbitis purpurea [28]; 20 g/ha) of the same compound?
Answer: 90%

Question: What about the “Post-emergence action against PHBPU in %” value (Pharbitis purpurea [28]; 80 g/ha) of the same compound?
Answer: 100%
